In patent US20220127297A1, “Novel Antibacterial 3"-Derivatives Of 4,6-Disubstituted 2,5-Dideoxystreptamine Aminoglycoside Antibiotics” (AGILeBiotics B.V., priority 2018, published 2022):
In brackets after ≈: the same amount, converted by molar mass. Where two headings read alike, the source gives them in different places.

Test system: clinical isolates of multidrug-resistant Klebsiella pneumoniae (and ATCC43816)
Experiment: MIC determination at Fidelta, clinical isolates
Format: cell-based
Text: 3.4.2 MIC Determination at Fidelta (Croatia)
Tested reference compounds. Amikacin sulfate (Cat. No. 01693, Chem-Impex), Gentamicin sulfate (Cat. No. G4918, Sigma Aldrich), Ceftazidime Pentahydrate (Cat. No. 1098130, USP), Meropenem (Cat. No. 1392454, USP), Tobramycin (Cat. No. 1667508, USP).
Microbial strains. Klebsiella pneumoniae KP-1919 (abdomen), Klebsiella pneumoniae KP-1935 (urine), Klebsiella pneumoniae KP-1936 (abscess), Klebsiella pneumoniae KP-1937 (blood), Klebsiella pneumoniae KP-1942 (urine), Klebsiella pneumoniae KP-1944 (blood), Klebsiella pneumoniae KP-2027 (tracheal aspirate), Klebsiella pneumoniae KP-2029 (urine), Klebsiella pneumoniae KP-2030 (trachea), Klebsiella pneumoniae KP-2031 (skin), Klebsiella pneumoniae KP-2032 (urine), Klebsiella pneumoniae KP-2033 (urine), Klebsiella pneumoniae KP-2034 (urine), Klebsiella pneumoniae KP-2035 (urine), Klebsiella pneumoniae KP-2036 (urine), Klebsiella pneumoniae KP-2037 (urine), Klebsiella pneumoniae ATCC 43816, Pseudomonas aeruginosa PA-1948 (wound), Pseudomonas aeruginosa PA-1949 (urine), Pseudomonas aeruginosa PA-1950 (sputum), Pseudomonas aeruginosa PA-1952 (wound), Pseudomonas aeruginosa PA-1953 (urine), Pseudomonas aeruginosa PA-1954 (sputum), Pseudomonas aeruginosa PA-1967 (blood), Pseudomonas aeruginosa ATCC27853, Acinetobacter baumannii AB-1931 (urine), Acinetobacter baumannii AB-1932 (urine), Acinetobacter baumannii AB-2017 (bronchial aspirate), Acinetobacter baumannii AB-2018 (skin), Acinetobacter baumannii AB-2019 (bronchial aspirate), Acinetobacter baumannii AB-1964 (blood), Acinetobacter baumannii AB-2025 (skin), Acinetobacter baumannii AB-2026 (skin), Acinetobacter baumannii ATCC17978, methicillin-resistant Staphylococcus aureus MRSA-1995 (liquor), methicillin-resistant Staphylococcus aureus MRSA-1998 (wound), methicillin-resistant Staphylococcus aureus MRSA-1999 (skin), methicillin-resistant Staphylococcus aureus MRSA-2003 (wound), vancomycin-resistant Enterococcus faecium VRE-2005 (urine), vancomycin-resistant Enterococcus faecium VRE-2006 (urine), vancomycin-resistant Enterococcus faecium VRE-2007 (urine), vancomycin-resistant Enterococcus faecium VRE-2008 (urine), vancomycin-resistant Enterococcus faecium VRE-2009 (urine), vancomycin-resistant Enterococcus faecium VRE-2010 (urine), vancomycin-resistant Enterococcus faecium VRE-2011 (rectum), vancomycin-resistant Enterococcus faecium VRE-2012 (rectum), vancomycin-resistant Enterococcus faecium VRE-2013 (rectum).
Culture media and equipment. BBL™ Mueller Hinton Broth (REF 275730, Lot. 7009699, Becton Dickinson); Mueller Hinton Agar 2 (Ref. No. 97580-500G-F, Lot. No. BCBV4646, Sigma); Cellstar, 96-well plates, U-bottom (Cat. No. 650180, Lot. No. E14123EB, Greiner Bio-one); 96-well deep well plate, 1 mL (Cat. No. 278606, Nunc); Incubator (Binder); Laminar flow (Thermo Scientific); BioPhotometer (Eppendorf); DEN-1B (McFarland Densitometer, Biosan); McFarland standards (polymer microparticle suspension, Biosan).
Compound preparation. For testing, 5 mg/mL DMSO solutions of the test compounds and reference antibiotics were used. Out of these DMSO solutions, 43.5 μL was transferred to 1656.5 μL of MH media in a deep well plate. Out of these working solutions 100 μL was transferred to wells in the third column of 96-well plates. Plates are previously filled with 50 μL of MH media in all wells except for the wells in the third column. After compound and antibiotic addition, 50 μL was transferred from the third to the fourth column, then from the fourth to the fifth and so on. In this manner, the compounds and antibiotics were plated in 96-well plate in serial two-fold dilutions giving a final concentration range of 64-0.125 μg/mL.
Inoculum preparation. Designations used for clinical isolates were from Fidelta strain collection bank. Microorganisms used were all revived from skim milk storage at −70° C. by plating them on MH agar plates.

[1] = Klebsiella pneumoniae, ATCC43816, KP-1919, Abdomen/VIM, ESBL, read-out: MIC 90
[2] = Klebsiella pneumoniae, ATCC43816, KP-1935, Urine/ESBL, NDM, read-out: MIC 90
[3] = Klebsiella pneumoniae, ATCC43816, KP-1936, Abscess/NDM, read-out: MIC 90
[4] = Klebsiella pneumoniae, ATCC43816, KP-1937, Blood/VIM, ESBL, read-out: MIC 90
[5] = Klebsiella pneumoniae, ATCC43816, KP-1942, Urine (catheter)/VIM, read-out: MIC 90
[6] = Klebsiella pneumoniae, ATCC43816, KP-1944, Blood/NDM, read-out: MIC 90
[7] = Klebsiella pneumoniae, ATCC43816, KP-2027, Tracheal aspirate/ESBL, OXA-48, ColR, read-out: MIC 90
[8] = Klebsiella pneumoniae, ATCC43816, KP-2029, Urine/ESBL, OXA-48, read-out: MIC 90
[9] = Klebsiella pneumoniae, ATCC43816, KP-2030, Trachea/ESBL, OXA-48, read-out: MIC 90
[10] = Klebsiella pneumoniae, ATCC43816, KP-2031, Skin/ESBL, OXA-48, read-out: MIC 90
[11] = Klebsiella pneumoniae, ATCC43816, KP-2032, Urine/ESBL, OXA-48, read-out: MIC 90
[12] = Klebsiella pneumoniae, ATCC43816, KP-2033, Urine/OXA-A8, read-out: MIC 90
[13] = Klebsiella pneumoniae, ATCC43816, KP-2034, Urine/ESBL, OXA-48, read-out: MIC 90
[14] = Klebsiella pneumoniae, ATCC43816, KP-2035, Urine/ESBL, OXA-48, read-out: MIC 90
[15] = Klebsiella pneumoniae, ATCC43816, KP-2036, Urine/ESBL, read-out: MIC 90
[16] = Klebsiella pneumoniae, ATCC43816, KP-2037, Urine/ESBL, OXA-48, read-out: MIC 90

Structure (SMILES)	MIC90 (K. pneumoniae ATCC43816 strain) [µg/mL]	MIC90 [1] [µg/mL]	MIC90 [2] [µg/mL]	MIC90 [3] [µg/mL]	MIC90 [4] [µg/mL]	MIC90 [5] [µg/mL]	MIC90 [6] [µg/mL]	MIC90 [7] [µg/mL]	MIC90 [8] [µg/mL]	MIC90 [9] [µg/mL]	MIC90 [10] [µg/mL]	MIC90 [11] [µg/mL]	MIC90 [12] [µg/mL]	MIC90 [13] [µg/mL]	MIC90 [14] [µg/mL]	MIC90 [15] [µg/mL]	MIC90 [16] [µg/mL]	also measured
N=C(NCCN)NC1C(O)[C@@H](CO)OC(OC2C(F)[C@H](O[C@H]3OC(CN)[C@@H](O)CC3N)C(N)C[C@H]2NC(=O)[C@@H](O)CCN)[C@@H]1O (some centres unmarked) [ABX5020, Tobra-AHB-F-Gua-2-amino-ethyl]	1 (≈ 1.53 µM)	4 (≈ 6.1 µM)	4 (≈ 6.1 µM)	2 (≈ 3.05 µM)	8 (≈ 12.2 µM)	1 (≈ 1.53 µM)	4 (≈ 6.1 µM)	2 (≈ 3.05 µM)										
N=C(NC[C@@H]1CCNC1)NC1[C@@H](O)C(OC2[C@@H](F)[C@H](O[C@H]3OC(CN)[C@@H](O)CC3N)C(N)C[C@H]2NC(=O)[C@@H](O)CCN)O[C@H](CO)[C@H]1O (stereo partly drawn) [ABX5039, Tobra-AHB-F-Gua (R) pyrrolidine-3-ylmethyl]	1 (≈ 1.44 µM)	1 (≈ 1.44 µM)	2 (≈ 2.87 µM)	1 (≈ 1.44 µM)	2 (≈ 2.87 µM)	1 (≈ 1.44 µM)	2 (≈ 2.87 µM)	1 (≈ 1.44 µM)	0.5 (≈ 0.719 µM)	1 (≈ 1.44 µM)	0.5 (≈ 0.719 µM)	0.5 (≈ 0.719 µM)	0.5 (≈ 0.719 µM)	1 (≈ 1.44 µM)	1 (≈ 1.44 µM)	1 (≈ 1.44 µM)	0.5 (≈ 0.719 µM)	
N=C(N)NC1[C@@H](O)C(OC2[C@@H](F)[C@H](O[C@H]3OC(CN)[C@@H](O)[C@H](O)C3N)C(N)C[C@H]2NC(=O)[C@@H](O)CCN)O[C@H](CO)[C@H]1O (some centres unmarked) [ABX4006, KanaB-AHB-F-Gua]		1 (≈ 1.59 µM)	0.5 (≈ 0.795 µM)	0.5 (≈ 0.795 µM)	4 (≈ 6.36 µM)	0.25 (≈ 0.398 µM)	1 (≈ 1.59 µM)	0.5 (≈ 0.795 µM)										
N=C(N)NC1C(O)[C@@H](CO)OC(OC2C(F)[C@H](O[C@H]3OC(CN)[C@@H](O)CC3N)C(N)C[C@H]2NC(=O)[C@@H](O)CCN)[C@@H]1O (some centres unmarked) [ABX5006, Tobra-AHB-F-Gua]	0.25 (≈ 0.408 µM)	0.5 (≈ 0.816 µM)	0.5 (≈ 0.816 µM)	0.5 (≈ 0.816 µM)	2 (≈ 3.26 µM)	0.25 (≈ 0.408 µM)	1 (≈ 1.63 µM)	0.5 (≈ 0.816 µM)	0.25 (≈ 0.408 µM)	0.5 (≈ 0.816 µM)	0.5 (≈ 0.816 µM)	0.25 (≈ 0.408 µM)	0.25 (≈ 0.408 µM)	0.5 (≈ 0.816 µM)	0.5 (≈ 0.816 µM)	0.25 (≈ 0.408 µM)	0.5 (≈ 0.816 µM)	
N=C(NC[C@@H]1CCCN1)NC1[C@@H](O)C(OC2[C@@H](F)[C@H](O[C@H]3OC(CN)[C@@H](O)CC3N)C(N)C[C@H]2NC(=O)[C@@H](O)CCN)O[C@H](CO)[C@H]1O (stereo partly drawn) [ABX5026, Tobra-AHB-F-Gua (S) pyrrolidine-2-yl-methyl]	1 (≈ 1.44 µM)	1 (≈ 1.44 µM)	1 (≈ 1.44 µM)	1 (≈ 1.44 µM)	2 (≈ 2.87 µM)	1 (≈ 1.44 µM)	2 (≈ 2.87 µM)	1 (≈ 1.44 µM)	0.5 (≈ 0.719 µM)	1 (≈ 1.44 µM)	0.5 (≈ 0.719 µM)	0.5 (≈ 0.719 µM)	0.5 (≈ 0.719 µM)	1 (≈ 1.44 µM)	0.5 (≈ 0.719 µM)	0.5 (≈ 0.719 µM)	0.5 (≈ 0.719 µM)	
NCC[C@H](O)C(=O)N[C@@H]1C[C@H](N)[C@@H](O[C@H]2O[C@H](CN)[C@@H](O)[C@H](O)[C@H]2O)[C@H](O)[C@H]1O[C@H]1O[C@H](CO)[C@@H](O)[C@H](N)[C@H]1O [Amikacin, amikacin, reference compound]																		MIC90 (Klebsiella pneumoniae, ATCC43816): 0.5 µg/mL (≈ 0.854 µM); MIC90 (Klebsiella pneumoniae, ATCC43816, KP-1919, Abdomen/VIM, ESBL): 8 µg/mL (≈ 13.7 µM); MIC90 (Klebsiella pneumoniae, ATCC43816, KP-1935, Urine/ESBL, NDM): 8 µg/mL (≈ 13.7 µM); MIC90 (Klebsiella pneumoniae, ATCC43816, KP-1936, Abscess/NDM): 4 µg/mL (≈ 6.83 µM); MIC90 (Klebsiella pneumoniae, ATCC43816, KP-1937, Blood/VIM, ESBL): 32 µg/mL (≈ 54.6 µM); MIC90 (Klebsiella pneumoniae, ATCC43816, KP-1942, Urine (catheter)/VIM): 2 µg/mL (≈ 3.42 µM); MIC90 (Klebsiella pneumoniae, ATCC43816, KP-1944, Blood/NDM): 8 µg/mL (≈ 13.7 µM); MIC90 (Klebsiella pneumoniae, ATCC43816, KP-2027, Tracheal aspirate/ESBL, OXA-48, ColR): 4 µg/mL (≈ 6.83 µM); MIC90 (Klebsiella pneumoniae, ATCC43816, KP-2029, Urine/ESBL, OXA-48): 8 µg/mL (≈ 13.7 µM); MIC90 (Klebsiella pneumoniae, ATCC43816, KP-2030, Trachea/ESBL, OXA-48): 16 µg/mL (≈ 27.3 µM); MIC90 (Klebsiella pneumoniae, ATCC43816, KP-2031, Skin/ESBL, OXA-48): 8 µg/mL (≈ 13.7 µM); MIC90 (Klebsiella pneumoniae, ATCC43816, KP-2032, Urine/ESBL, OXA-48): 4 µg/mL (≈ 6.83 µM); MIC90 (Klebsiella pneumoniae, ATCC43816, KP-2033, Urine/OXA-A8): 2 µg/mL (≈ 3.42 µM); MIC90 (Klebsiella pneumoniae, ATCC43816, KP-2034, Urine/ESBL, OXA-48): 16 µg/mL (≈ 27.3 µM); MIC90 (Klebsiella pneumoniae, ATCC43816, KP-2035, Urine/ESBL, OXA-48): 8 µg/mL (≈ 13.7 µM); MIC90 (Klebsiella pneumoniae, ATCC43816, KP-2036, Urine/ESBL): 8 µg/mL (≈ 13.7 µM); MIC90 (Klebsiella pneumoniae, ATCC43816, KP-2037, Urine/ESBL, OXA-48): 4 µg/mL (≈ 6.83 µM)
